Source: patent US20030109444A1, “Bone anti-resorptive compounds” (priority 2001, published 2003)
Entries after “also recorded” stand apart in the source; their conditions may differ.

System: osteoclast precursors (bone marrow macrophages)
Test: Osteoclast differentiation of bone marrow macrophage cultures monitored by TRAP activity
Assay type: cell-based
Conditions: cell cultures of osteoclast precursors (mouse BMMs) with M-CSF, increasing concentrations of peptide, FIG. 1
Description: The effect of a partial AA″ loop polypeptide of RANKL on TRAP activity. Wild type C3H/HENJ mice were purchased from Harlan Industries (Indianapolis, Ind.). In order to establish a cell culture of osteoclast precursors, bone marrow macrophages (BMMs) were isolated from whole bone marrow of four to six week old mice and incubated in tissue culture dishes at 37° C. in 5% CO2. After 24 hours in culture, the non-adherent cells were collected and layered on a Ficoll Hypaque gradient and the cells at the gradient interface were collected. Cells were replated at 65,000/cm^2 in α-minimal essential medium, supplemented with 10% heat inactivated fetal bovine serum, at 37° C. in 5% CO2 in the presence of recombinant mouse M-CSF (10 ng.ml). The cell cultures were then treated either with the increasing concentrations of polypeptide of SEQ ID NO 1 (subset of AA″ loop) or with a negative control scrambled peptide having the same molecular weight as the test compound. […] This phosphatase is an osteoclast specific enzyme and its activity corresponds with osteoclast differentiation. TRAP activity is measured by quantitating its ability to cleave a substrate in a color-producing reaction.

Q: Which results are given for PSGSHKVTLSS [SEQ ID NO 1]?
A: TRAP activity: decreases TRAP activity; inhibition of RANKL-induced osteoclast differentiation as monitored by TRAP (listed as test compound): competitively inhibits the ability of RANKL to induce osteoclast differentiation; also recorded: dose-dependent
